In ChEMBL document CHEMBL3044528, “Potential new fungicides: N-acyl-5-methyl-3(2H)-isoxazolone derivatives” (2012) one finds inhibition of growth data, which are given here for 9 compounds.

SMILES strings stand for the structures.

What all share (assay type): functional
One assay concerns Fusarium graminearum. Nature of the assay: Fungicidal activity against Fusarium graminearum H3 assessed as mycelial growth inhibition at 25 mg/L after 3 days. The conditions noted are these: H3, 72 h, read-out: GI.
A further assay has as its system Microdochium nivale. The experiment in a line: Fungicidal activity against Microdochium nivale IFO-7432 assessed as mycelial growth inhibition at 25 mg/L after 3 days. The conditions noted are these: IFO-7432, 72 h, read-out: GI.
In a further assay the test system is Rhynchosporium secalis. The experiment in a line: Fungicidal activity against Rhynchosporium secalis IFO-5290 assessed as mycelial growth inhibition at 25 mg/L after 14 days. The conditions noted are these: IFO-5290, 336 h, read-out: GI.
The next assay deals with Pyrenophora graminea. Nature of the assay: Fungicidal activity against Pyrenophora graminea IFO-7507 assessed as mycelial growth inhibition at 25 mg/L after 3 days. The settings on record: IFO-7507, 72 h, read-out: GI.
The subject of another assay is Gaeumannomyces graminis. Nature of the assay: Fungicidal activity against Gaeumannomyces graminis MAFF305168 assessed as mycelial growth inhibition at 25 mg/L after 1 day. The settings on record: MAFF305168, 24 h, read-out: GI.
For the next assay, the system named is Cercospora beticola. Nature of the assay: Fungicidal activity against Cercospora beticola Be-2-6 assessed as mycelial growth inhibition at 25 mg/L after 7 days. The conditions noted are these: Be-2-6, 168 h, read-out: GI.
In a further assay the test system is Zymoseptoria tritici. The experiment in a line: Fungicidal activity against Zymoseptoria tritici S3 assessed as mycelial growth inhibition at 25 mg/L after 14 days. The settings on record: S3, 336 h, read-out: GI.
Another assay has as its system Rhizoctonia solani. The experiment in a line: Fungicidal activity against Rhizoctonia solani ET0007 assessed as mycelial growth inhibition at 25 mg/L after 1 day. The conditions noted are these: ET0007, 24 h, read-out: GI.
For another assay, the system named is Alternaria alternata. Nature of the assay: Fungicidal activity against Alternaria alternata APS-38 assessed as mycelial growth inhibition at 25 mg/L after 3 days. The conditions noted are these: APS-38, 72 h, read-out: GI.

`CSCCC(=O)n1oc(C)cc1=O`: the inhibition of growth at 25 µg/mL was determined as 37% in the assay with Fusarium graminearum; 50% in the assay on Microdochium nivale; 99% in the assay on Rhynchosporium secalis; 76% with Pyrenophora graminea; 58% with Gaeumannomyces graminis; 92% in the assay with Cercospora beticola. The inhibition of growth at 25 µg/mL with Zymoseptoria tritici worked out at 67%; with Rhizoctonia solani, 62%; in the assay with Alternaria alternata it was 64%.

On to `Cc1cc(=O)n(C(=O)/C=C/c2ccccc2)o1`, for which the inhibition of growth at 25 µg/mL with Fusarium graminearum was determined as 26%; in the assay on Microdochium nivale, 59%; in the assay on Rhynchosporium secalis it was 100%; in the assay on Pyrenophora graminea, 90%; in the assay with Gaeumannomyces graminis it was 0%; in the assay with Cercospora beticola it was 91%. Also, the inhibition of growth at 25 µg/mL in the assay on Zymoseptoria tritici was determined as 62%; with Rhizoctonia solani, 92%; in the assay on Alternaria alternata it was 67%.

On to `Cc1cc(=O)n(C(=O)C#Cc2ccccc2)o1`, for which the inhibition of growth at 25 µg/mL was 23% in the assay with Fusarium graminearum; 41% in the assay on Microdochium nivale; 98% with Rhynchosporium secalis; 73% in the assay on Pyrenophora graminea; 3% with Gaeumannomyces graminis; 88% in the assay with Cercospora beticola. Further, the inhibition of growth at 25 µg/mL in the assay on Zymoseptoria tritici came out at 83%; in the assay with Rhizoctonia solani, 17%; with Alternaria alternata it was 72%.

`Cc1cc(=O)n(C(=O)c2ccccc2I)o1`: the inhibition of growth at 25 µg/mL stood at 36% in the assay on Fusarium graminearum; 61% with Microdochium nivale; 100% with Rhynchosporium secalis; 92% in the assay on Pyrenophora graminea; 25% in the assay on Gaeumannomyces graminis; 88% with Cercospora beticola. Further, the inhibition of growth at 25 µg/mL in the assay on Zymoseptoria tritici was found to be 47%; with Rhizoctonia solani it was 57%; in the assay on Alternaria alternata, 33%.

With `CC(=O)n1oc(C)cc1=O`, the inhibition of growth at 25 µg/mL with Fusarium graminearum amounted to 50%; with Microdochium nivale, 79%; in the assay with Rhynchosporium secalis, 100%; with Pyrenophora graminea it was 72%; in the assay with Gaeumannomyces graminis, 72%; in the assay on Cercospora beticola, 92%. For the same compound, the inhibition of growth at 25 µg/mL in the assay with Zymoseptoria tritici came out at 98%; with Rhizoctonia solani, 26%; in the assay on Alternaria alternata, 90%.

`Cc1cc(=O)n(C(=O)CC(C)(C)C)o1`: the inhibition of growth at 25 µg/mL is 47% with Fusarium graminearum; 76% in the assay on Microdochium nivale; 96% in the assay on Rhynchosporium secalis; 76% in the assay with Pyrenophora graminea; 97% in the assay on Gaeumannomyces graminis; 93% in the assay on Cercospora beticola. The inhibition of growth at 25 µg/mL in the assay on Zymoseptoria tritici worked out at 70%; with Rhizoctonia solani, 71%; in the assay on Alternaria alternata, 64%.

As for `Cc1cc(=O)n(C(=O)C2(c3ccccc3)CC2(Cl)Cl)o1` (stereo unspecified), the inhibition of growth at 25 µg/mL came out at 32% in the assay with Fusarium graminearum; 58% in the assay with Microdochium nivale; 99% in the assay with Rhynchosporium secalis; 89% in the assay with Pyrenophora graminea; 9% with Gaeumannomyces graminis; 85% in the assay with Cercospora beticola. The inhibition of growth at 25 µg/mL in the assay on Zymoseptoria tritici turned out to be 69%; in the assay on Rhizoctonia solani, 46%; in the assay with Alternaria alternata, 50%.

With `Cc1cc(=O)n(C(=O)C2CCc3ccccc3C2)o1` (stereo unspecified), the inhibition of growth at 25 µg/mL turned out to be 40% in the assay on Fusarium graminearum; 82% in the assay with Microdochium nivale; 100% in the assay on Rhynchosporium secalis; 73% with Pyrenophora graminea; 57% with Gaeumannomyces graminis; 80% in the assay on Cercospora beticola. The inhibition of growth at 25 µg/mL was found to be 95% in the assay on Zymoseptoria tritici, 50% in the assay with Rhizoctonia solani and 64% in the assay on Alternaria alternata.

As to `CCC(=O)n1oc(C)cc1=O`, the inhibition of growth at 25 µg/mL in the assay with Fusarium graminearum was 32%; in the assay with Microdochium nivale, 68%; with Rhynchosporium secalis, 100%; with Pyrenophora graminea it was 88%; in the assay with Gaeumannomyces graminis, 50%; in the assay on Cercospora beticola it was 94%. The inhibition of growth at 25 µg/mL worked out at 69% in the assay on Zymoseptoria tritici, 22% in the assay on Rhizoctonia solani and 87% with Alternaria alternata.
